In US11859248B2, “Nucleic acid modification and identification method” (IMBA—INSTITUT FÜR MOLEKULARE BIOTECHNOLOGIE GMBH, priority 2017, dated 2024):

What was measured:
mES cells [1] = experiment: HPLC analysis of s^4U-incorporation into total RNA of mES cells after metabolic labeling; format: cell-based, mouse; settings: 100 μM s^4U, 24 h labeling
Procedure: (§1) Analysis of s^4U- or s^6G-incorporation into total RNA following metabolic labeling was performed as previously described by Spitzer et al. (Meth Enzymol. 539, 113-161 (2014)).
mES cells were seeded the day before the experiment at a density of 10^5 cells/ml in 10 cm dishes. s^4U-metabolic labeling was performed by incubation of mES cells in standard medium but adding 100 μM s^4U or s^6G (SIGMA) from a 500 mM stock solution in water. During the metabolic labeling, s^4U or s^6G containing medium was exchanged every 3 h. For the uridine chase experiment, s^4U or s^6G containing medium was discarded, cells were washed twice with 1× PBS and incubated with standard medium supplemented with 10 mM uridine (SIGMA). Cells were directly lysed in TRIzol® (Ambion) and RNA was extracted following the manufacturer instructions except that 0.1 mM final concentration of DTT was added during isopropanol precipitation. RNA was resuspended in 1 mM DTT. […]
We tested the ability of mouse embryonic stem cells to tolerate s^4U metabolic RNA-labeling after 12 h or 24 h at varying s^4U concentrations (FIG. 6A). […] Under these conditions, we detected a steady increase in s^4U-incorporation in total RNA preparation 3 h, 6 h, 12 h, and 24 h post labeling, as well as a steady decrease 3 h, 6 h, 12 h, and 24 h after uridine chase (FIG. 6B). […]

mES cells [2] = experiment: mRNA 3' end sequencing (Quant-seq/SLAM-seq) of mES cells after s^4U metabolic labeling; format: cell-based, mouse
Procedure: mES cells were seeded the day before the experiment at a density of 10^5 cells/ml in 10 cm dishes. s^4U-metabolic labeling was performed by incubation of mES cells in standard medium but adding 100 μM s^4U or s^6G (SIGMA) from a 500 mM stock solution in water. During the metabolic labeling, s^4U or s^6G containing medium was exchanged every 3 h. For the uridine chase experiment, s^4U or s^6G containing medium was discarded, cells were washed twice with 1× PBS and incubated with standard medium supplemented with 10 mM uridine (SIGMA). […]
For analysis of mRNA 3′ end sequencing (Quant-seq) datasets, reads were demultiplexed using Picard Tools BamIndexDecoder v1.13 allowing 1 mismatch in the barcode. Five nucleotides at the 5′ end of demultiplexed reads were trimmed. Reads were aligned to mouse genome mm10 and alignments in annotated 3′ UTRs (Gencode) were counted using SLAMdunk (Neumann & Rescheneder, t-neumann.github.io/slamdunk/; Herzog et al., Nature Methods 14, 1198-1204 (2017)). Briefly, SLAMdunk relies on NextGenMap, a flexible and fast read mapping program, and was tailored using an adapted scoring scheme eliminating T>C mismatch penalties for the mapping step. T>C containing reads and non-T>C containing reads aligning to 3′ UTRs were quantified to deduce s^4U- or unlabeled transcript abundance, respectively. […]

Drosophila S2 cells [3] = experiment: HPLC analysis of s^4U-incorporation into total RNA of Drosophila S2 cells; format: cell-based, Drosophila melanogaster; settings: 500 μM s^4U, 24 h
Procedure: as §1
Upon generating libraries from size-selected total RNA of Drosophila S2 cells after s^4U metabolic labeling for 24 hours, we observed a strong accumulation of T>C conversions when compared to libraries prepared from unlabeled cells, as exemplified for the miR-184 locus, which gives rise to an abundantly expressed microRNA, miR-184-3p, and its less abundant miR*, miR-184-5p (FIG. 12A). In order to confirm this observation at the genomic scale, we aligned reads to annotated microRNA loci in the Drosophila genome and inspected the frequency of any given mutation normalized to overall T-content per miRNA (FIG. 12B). In the absence of s^4U metabolic labeling, we observed a median mutation rate of less than 0.1% for any given mutation, a rate that is consistent with Illumina-reported sequencing error rates. (Note, that iodoacetamide treatment of unlabeled total RNA had no detectable impact on small RNA abundance and mutation rate, as determined by high-throughput sequencing. See FIG. 19). […]

Drosophila S2 cells [4] = experiment: Small RNA sequencing of Drosophila S2 cells after s^4U metabolic labeling; format: cell-based, Drosophila melanogaster
Procedure: Upon generating libraries from size-selected total RNA of Drosophila S2 cells after s^4U metabolic labeling for 24 hours, we observed a strong accumulation of T>C conversions when compared to libraries prepared from unlabeled cells, as exemplified for the miR-184 locus, which gives rise to an abundantly expressed microRNA, miR-184-3p, and its less abundant miR*, miR-184-5p (FIG. 12A). In order to confirm this observation at the genomic scale, we aligned reads to annotated microRNA loci in the Drosophila genome and inspected the frequency of any given mutation normalized to overall T-content per miRNA (FIG. 12B). In the absence of s^4U metabolic labeling, we observed a median mutation rate of less than 0.1% for any given mutation, a rate that is consistent with Illumina-reported sequencing error rates. (Note, that iodoacetamide treatment of unlabeled total RNA had no detectable impact on small RNA abundance and mutation rate, as determined by high-throughput sequencing. See FIG. 19). After 24 h of s^4U metabolic labeling, we observed a statistically significant (p<10^−4, Mann-Whitney test), 74-fold increase in T>C mutation rates, while all other mutations remained below expected sequencing error rates (FIG. 12B).

Drosophila S2 cells [5] = experiment: Viability of Drosophila S2 cells under s^4U labeling conditions; format: cell-based, Drosophila melanogaster; settings: 500 μM, 24 h

O=c1[nH]c(=S)ccn1[C@@H]1O[C@H](CO)[C@@H](O)[C@H]1O [s^4U, 4-thiouridine]
maximum average s^4U incorporation in total RNA (mES cells [1]): 1.78% | median s^4U-incorporation in mRNA (3' UTRs) (mES cells [2]; 24 h labeling): 2.56% | increase in T>C mutation rates (mES cells [2]; 24 h labeling vs unlabeled): 25 fold | labeling efficiency in total RNA (Drosophila S2 cells [3]): 2.3% | median s^4U-incorporation in miRNAs (Drosophila S2 cells [4]; 500 μM s^4U, 24 h labeling): 2.22% | increase in T>C mutation rates (Drosophila S2 cells [4]; 24 h labeling vs unlabeled): 74 fold | effect on cell viability (Drosophila S2 cells [5]): do not interfere with cell viability
